Measured values: PubChem BioAssay (NCI)
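Five compound concentrations were applied to cells in 96-well plates for 48 hours; endpoints were derived by simple linear interpolation of the resulting dose-response curve. TGI: concentration producing complete growth inhibition.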

How the values were obtained:
Assay in all cases: DTP human tumour cell line panel, 48 h
SW-620 colon = tested on: SW-620 colon
A549 NSCLC = tested on: A549 NSCLC
MALME-3M melanoma = tested on: MALME-3M melanoma
CCRF-CEM leukemia = tested on: CCRF-CEM leukemia
HCC-2998 colon = tested on: HCC-2998 colon
NCI-H460 lung = tested on: NCI-H460 lung
SK-MEL-2 melanoma = tested on: SK-MEL-2 melanoma
MCF7 breast = tested on: MCF7 breast
LOX IMVI melanoma = tested on: LOX IMVI melanoma
SN12C renal = tested on: SN12C renal
UO-31 renal = tested on: UO-31 renal
MOLT-4 leukemia = tested on: MOLT-4 leukemia

Structure (SMILES)	TGI (SW-620 colon) [µM]	TGI (A549 NSCLC) [µM]	TGI (MALME-3M melanoma) [µM]	TGI (CCRF-CEM leukemia) [µM]	TGI (HCC-2998 colon) [µM]	TGI (NCI-H460 lung) [µM]	TGI (SK-MEL-2 melanoma) [µM]	TGI (MCF7 breast) [µM]	TGI (LOX IMVI melanoma) [µM]	TGI (SN12C renal) [µM]	TGI (UO-31 renal) [µM]	TGI (MOLT-4 leukemia) [µM]
O=C(C=P(c1ccccc1)(c1ccccc1)c1ccccc1)c1ccc(-c2cccs2)cc1	21.7	11.6	13.4	22.1	6.46	12.2	3.11	11.7	19.6	17.6	14.4	4.7
COc1ccc2c3c1OC1C(F)C=CC4(O)C(C2)NCCC314 (stereo unspecified)	7.71	23.1	5.56	3.91	12.8	21.4	6.65	5.25	10.4	10.3	4.62	3.76
CCOC(=O)c1cc(C2CCN(c3ccccc3)C2=O)c(/C(O)=C/C(C)=O)[nH]1 (stereo unspecified)	> 100	> 100	> 100	> 100	> 100	> 100	> 100	> 100	> 100	> 100	> 100	> 100
CC[C@]12C=CCN3CC[C@@]4(c5cc(N=O)c(OC)cc5N(C)[C@H]4[C@@](O)(C(=O)OC)[C@@H]1OC(C)=O)[C@@H]32	> 100	> 100	> 100	74.1	> 100	> 100	41.7	> 100	> 100	> 100	> 100	> 100
O=C(O)c1ccccc1C(=O)NCC1S(=O)(=O)OCCOS1(=O)=O	> 100	> 100	> 100	> 100	> 100	> 100	> 100	> 100	> 100	> 100	> 100	> 100
Cc1ccc(C)n1-c1ccccc1C1C=Cn2c(=O)nnc3c(OC(C)C)c(OC(C)C)c(O)c1c32 (stereo unspecified)	42.3	> 100	76.5	> 100	> 100	> 100	> 100	> 100	> 100	> 100	> 100	56.5
CCOC(=O)C1(C#N)OC(=O)c2cnccc21 (stereo unspecified)	> 100	> 100	> 100	> 100	> 100	> 100	> 100	> 100	> 100	> 100	> 100	> 100
O=c1ccc2ccc(OP(=O)(O)O)cc2o1	> 100	> 100	> 100	> 100	> 100	> 100	> 100	> 100	> 100	> 100	> 100	> 100
Cc1[nH]c(=O)nc2nc3cc(Cl)cc(Cl)c3c(NC(C)(CO)CO)c12	> 100	> 100	> 100	> 100	> 100	> 100	> 100	> 100	> 100	> 100	> 100	> 100
Cc1ccc(CC2(C(=O)O)Cc3ccc(C)cc3C2)cc1 (stereo unspecified)	> 100	> 100	> 100	> 100	> 100	> 100	> 100	> 100	> 100	> 100	> 100	> 100
Cc1ccc(CC(Cc2ccccc2C)C(=O)O)c(C(=O)O)c1 (stereo unspecified)	> 100	> 100	> 100	> 100	> 100	> 100	> 100	> 100	> 100	> 100	> 100	> 100
O=C1NC2c3c(I)sc(I)c3C(=O)C2O1 (stereo unspecified)	9.76	28.3	6.88	11	15.5	32.9	15.3	13.7	5.15	51.5	12.2	> 38.5
N#C/C(=C\c1ccc(F)cc1)c1nc(-c2cc3ccccc3oc2=O)cs1	> 100	> 100	52.9	> 100	> 100	> 100	> 100	> 100	> 100	> 100	97.9	> 100
